In PMC9851200, “Multiparameter phenotypic screening for endogenous TFEB and TFE3 translocation identifies novel chemical series modulating lysosome function” (Autophagy, 2022):
Read-outs that look alike come from different tables or passages of the source.

Legend:
Assay type in all cases: binding
[1] = target: kinases (KINOMEscan panel) (Homo sapiens, UniProt P00519); conditions: NEW KINOMEscan
[2] = target: T1, kinases (KINOMEscan panel) (Homo sapiens, UniProt Q8IW41)
T1 sequence (Q8IW41 1-473): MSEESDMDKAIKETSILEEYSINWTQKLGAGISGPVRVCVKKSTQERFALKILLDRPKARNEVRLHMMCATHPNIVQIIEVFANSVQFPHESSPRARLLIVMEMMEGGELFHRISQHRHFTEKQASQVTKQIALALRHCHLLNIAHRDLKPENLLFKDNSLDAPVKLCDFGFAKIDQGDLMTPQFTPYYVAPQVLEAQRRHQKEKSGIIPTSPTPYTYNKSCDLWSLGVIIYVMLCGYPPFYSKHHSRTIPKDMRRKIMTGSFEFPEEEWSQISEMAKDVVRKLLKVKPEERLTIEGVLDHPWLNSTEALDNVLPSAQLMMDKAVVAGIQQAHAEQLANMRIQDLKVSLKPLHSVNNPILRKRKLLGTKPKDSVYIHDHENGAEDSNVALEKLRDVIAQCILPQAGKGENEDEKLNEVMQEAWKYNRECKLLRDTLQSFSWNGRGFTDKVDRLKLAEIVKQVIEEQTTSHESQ

[3] = target: T2, kinases (KINOMEscan panel) (Homo sapiens, UniProt Q13237); conditions: PRKG2; NEW KINOMEscan
T2 sequence (Q13237 1-762): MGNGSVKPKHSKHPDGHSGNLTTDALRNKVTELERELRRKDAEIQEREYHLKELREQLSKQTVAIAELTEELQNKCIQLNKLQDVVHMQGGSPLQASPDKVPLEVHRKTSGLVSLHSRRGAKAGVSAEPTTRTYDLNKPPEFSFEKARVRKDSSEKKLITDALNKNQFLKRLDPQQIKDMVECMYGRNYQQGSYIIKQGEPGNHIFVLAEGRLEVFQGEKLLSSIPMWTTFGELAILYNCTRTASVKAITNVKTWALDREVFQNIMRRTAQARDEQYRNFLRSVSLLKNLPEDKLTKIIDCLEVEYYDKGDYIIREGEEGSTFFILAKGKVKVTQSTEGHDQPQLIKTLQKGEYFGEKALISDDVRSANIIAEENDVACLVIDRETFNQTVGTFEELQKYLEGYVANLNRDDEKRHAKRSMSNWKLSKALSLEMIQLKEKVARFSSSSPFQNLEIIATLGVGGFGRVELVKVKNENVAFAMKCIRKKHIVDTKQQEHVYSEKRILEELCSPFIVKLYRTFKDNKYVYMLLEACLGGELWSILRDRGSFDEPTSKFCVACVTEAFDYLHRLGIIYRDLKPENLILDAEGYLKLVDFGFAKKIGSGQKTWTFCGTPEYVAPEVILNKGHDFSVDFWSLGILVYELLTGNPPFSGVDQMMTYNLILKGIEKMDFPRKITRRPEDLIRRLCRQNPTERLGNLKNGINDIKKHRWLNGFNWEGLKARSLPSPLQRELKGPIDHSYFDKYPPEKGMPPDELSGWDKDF

[4] = target: T3, kinases (KINOMEscan panel) (Homo sapiens, UniProt Q8NFD2); conditions: ANKK1; NEW KINOMEscan
T3 sequence (Q8NFD2 1-765): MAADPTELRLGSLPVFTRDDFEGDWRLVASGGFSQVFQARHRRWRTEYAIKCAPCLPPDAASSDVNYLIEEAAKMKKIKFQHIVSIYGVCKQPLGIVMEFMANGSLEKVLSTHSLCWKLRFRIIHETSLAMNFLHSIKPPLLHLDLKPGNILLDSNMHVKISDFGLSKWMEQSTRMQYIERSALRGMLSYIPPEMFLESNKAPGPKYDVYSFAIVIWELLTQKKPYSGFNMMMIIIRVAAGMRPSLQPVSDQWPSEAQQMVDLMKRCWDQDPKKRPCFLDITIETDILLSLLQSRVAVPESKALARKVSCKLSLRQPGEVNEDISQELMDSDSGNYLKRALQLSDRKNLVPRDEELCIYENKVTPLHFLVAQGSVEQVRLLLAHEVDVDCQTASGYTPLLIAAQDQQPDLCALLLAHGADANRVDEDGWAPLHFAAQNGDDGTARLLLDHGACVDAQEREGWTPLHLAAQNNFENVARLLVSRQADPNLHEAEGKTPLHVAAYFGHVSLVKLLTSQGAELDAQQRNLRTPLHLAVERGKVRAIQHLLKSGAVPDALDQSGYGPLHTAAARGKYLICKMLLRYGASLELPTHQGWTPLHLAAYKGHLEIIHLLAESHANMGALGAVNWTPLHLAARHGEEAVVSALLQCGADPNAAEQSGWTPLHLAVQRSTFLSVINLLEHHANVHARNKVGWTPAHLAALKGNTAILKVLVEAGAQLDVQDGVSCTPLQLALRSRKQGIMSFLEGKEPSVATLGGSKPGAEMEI

[5] = target: kinases (KINOMEscan panel) (Homo sapiens, UniProt Q9HBH9); conditions: MKNK2; NEW KINOMEscan
[6] = target: T4, kinases (KINOMEscan panel) (Homo sapiens, UniProt O14730); conditions: RIOK3; NEW KINOMEscan
T4 sequence (O14730 1-519): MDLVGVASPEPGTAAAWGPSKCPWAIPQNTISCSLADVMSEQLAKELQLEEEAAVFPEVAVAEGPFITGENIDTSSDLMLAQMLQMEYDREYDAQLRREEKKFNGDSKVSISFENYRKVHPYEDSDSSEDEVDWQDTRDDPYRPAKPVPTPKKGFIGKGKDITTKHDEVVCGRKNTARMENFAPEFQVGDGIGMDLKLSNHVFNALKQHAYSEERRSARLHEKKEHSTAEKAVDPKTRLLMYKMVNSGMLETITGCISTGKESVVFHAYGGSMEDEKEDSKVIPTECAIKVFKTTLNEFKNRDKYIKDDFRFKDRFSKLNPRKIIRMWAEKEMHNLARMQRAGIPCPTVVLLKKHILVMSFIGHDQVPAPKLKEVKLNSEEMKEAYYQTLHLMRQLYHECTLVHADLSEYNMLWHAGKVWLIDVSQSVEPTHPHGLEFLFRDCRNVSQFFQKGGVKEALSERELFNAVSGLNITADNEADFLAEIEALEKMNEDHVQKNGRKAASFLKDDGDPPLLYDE

Sequence of kinases (KINOMEscan panel) (Homo sapiens, UniProt P00519) (P00519 whole entry): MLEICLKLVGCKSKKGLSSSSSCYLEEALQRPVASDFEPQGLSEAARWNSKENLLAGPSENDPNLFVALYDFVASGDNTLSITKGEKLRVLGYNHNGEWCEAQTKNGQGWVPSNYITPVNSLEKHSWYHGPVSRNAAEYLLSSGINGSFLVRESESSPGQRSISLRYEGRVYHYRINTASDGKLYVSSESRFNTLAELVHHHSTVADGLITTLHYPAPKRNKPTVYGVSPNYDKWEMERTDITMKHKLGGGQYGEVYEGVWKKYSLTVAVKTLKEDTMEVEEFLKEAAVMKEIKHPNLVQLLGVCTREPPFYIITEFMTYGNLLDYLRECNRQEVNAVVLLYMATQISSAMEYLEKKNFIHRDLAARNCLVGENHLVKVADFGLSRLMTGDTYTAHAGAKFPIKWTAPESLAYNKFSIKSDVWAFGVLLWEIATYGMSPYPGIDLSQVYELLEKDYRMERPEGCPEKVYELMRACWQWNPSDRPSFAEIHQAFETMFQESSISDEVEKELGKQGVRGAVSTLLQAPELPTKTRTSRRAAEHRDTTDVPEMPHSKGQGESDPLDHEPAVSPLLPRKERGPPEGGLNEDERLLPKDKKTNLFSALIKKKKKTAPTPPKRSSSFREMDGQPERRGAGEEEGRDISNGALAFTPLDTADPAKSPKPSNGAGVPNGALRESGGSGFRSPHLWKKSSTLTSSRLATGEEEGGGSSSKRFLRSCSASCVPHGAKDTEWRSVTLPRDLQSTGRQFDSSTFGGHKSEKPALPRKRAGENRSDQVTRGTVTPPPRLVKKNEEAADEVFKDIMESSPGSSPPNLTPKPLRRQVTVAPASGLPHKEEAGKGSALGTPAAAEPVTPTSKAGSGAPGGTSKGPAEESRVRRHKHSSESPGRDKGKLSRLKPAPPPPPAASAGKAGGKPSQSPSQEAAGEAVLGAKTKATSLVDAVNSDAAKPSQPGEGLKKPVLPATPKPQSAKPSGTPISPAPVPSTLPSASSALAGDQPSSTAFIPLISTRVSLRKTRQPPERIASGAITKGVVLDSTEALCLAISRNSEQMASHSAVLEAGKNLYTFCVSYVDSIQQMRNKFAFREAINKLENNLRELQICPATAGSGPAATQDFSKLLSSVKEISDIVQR
Sequence of kinases (KINOMEscan panel) (Homo sapiens, UniProt Q9HBH9) (Q9HBH9 whole entry): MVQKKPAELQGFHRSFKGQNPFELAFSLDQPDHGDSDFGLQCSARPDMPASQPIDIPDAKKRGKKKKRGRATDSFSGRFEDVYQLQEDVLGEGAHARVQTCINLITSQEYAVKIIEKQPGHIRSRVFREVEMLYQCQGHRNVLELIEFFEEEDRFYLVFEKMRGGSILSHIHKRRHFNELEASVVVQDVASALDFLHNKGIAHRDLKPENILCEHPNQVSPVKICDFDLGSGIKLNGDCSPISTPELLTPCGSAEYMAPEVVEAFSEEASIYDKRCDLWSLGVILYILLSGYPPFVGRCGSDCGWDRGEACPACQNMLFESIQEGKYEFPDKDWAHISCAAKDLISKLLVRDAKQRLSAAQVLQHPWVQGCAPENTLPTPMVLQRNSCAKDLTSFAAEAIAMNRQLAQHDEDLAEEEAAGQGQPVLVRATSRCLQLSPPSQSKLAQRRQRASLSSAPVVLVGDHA

SMILES | KINOMEscan ABL1-nonphosphorylated [1] | KINOMEscan ABL1-phosphorylated [1] | KINOMEscan MAPKAPK5 ([2]; MAPKAPK5, NEW KINOMEscan) | KINOMEscan PRKG2 [3] | KINOMEscan ANKK1 [4] | KINOMEscan MKNK2 [5] | KINOMEscan RIOK3 [6] | KINOMEscan MAPKAPK5 [2]
Cc1cccc(-c2nc(Nc3ccc4nn(C)cc4c3)c3ccccc3n2)n1 [NK167] | 0 | 41 | 0 | 5 | 0 | 0 | 0 | 
Cc1cccc(-c2nc(N(C)c3ccc4ncsc4c3)c3ccccc3n2)n1 [NK-161] | 0 | 29 |  | 0 | 0 | 0 | 0 | 0
